The numbers were not newly measured in patent US8664187B2, “Methods of treatment of endobronchial infections” (Novartis AG, priority 2004, dated 2014), which cites them from elsewhere.

For series [1], the system named is P. aeruginosa. As to conditions: 600 mg tid aerosolized; 71 CF patients.
For series [2], the system named is P. aeruginosa. As to conditions: 300 mg inhaled twice daily, P<0.001 vs placebo.
For series [3], the system named is P. aeruginosa isolates. The conditions noted are these: CF patients, 1993.
For series [4], the system named is Gram-negative bacteria.

Like-named read-outs stand apart in the source and are kept apart here.

On to `NC[C@H]1O[C@H](O[C@H]2[C@H](O)[C@@H](O[C@H]3O[C@H](CO)[C@@H](O)[C@H](N)[C@H]3O)[C@H](N)C[C@@H]2N)[C@H](N)C[C@@H]1O` [tobramycin], for which, in series [1], the spirometry entry is reported as “improved spirometry” and the “sputum density of P. aeruginosa” value is recorded as “significant reduction in sputum density”. Also, the “average decrease in P. aeruginosa density” value in series [2] (28 days on/28 days off, Week 0 to Week 20) was 0.8 log10. Besides, the “average decrease in P. aeruginosa density” value in series [2] (Week 0 to Week 4) was 1.9 log10. For the same compound, in series [3], the “MICs of 90% of isolates” value was no more than 16 µg/mL and the “MICs of 98% of all isolates” value is no more than 128 µg/mL. In series [4], the “concentrations effective in inhibiting the growth of many Gram-negative bacteria” value was less than 4 µg/mL.
